We go through five molecules from paper PMC3203607 (Nucleic Acids Research, 2011).

What all share (assay type): binding
For test [1], the target named is T1, Ascaris eIF4E-3 (Ascaris suum, UniProt Q6PKX2).
T1 sequence (Q6PKX2 1-236): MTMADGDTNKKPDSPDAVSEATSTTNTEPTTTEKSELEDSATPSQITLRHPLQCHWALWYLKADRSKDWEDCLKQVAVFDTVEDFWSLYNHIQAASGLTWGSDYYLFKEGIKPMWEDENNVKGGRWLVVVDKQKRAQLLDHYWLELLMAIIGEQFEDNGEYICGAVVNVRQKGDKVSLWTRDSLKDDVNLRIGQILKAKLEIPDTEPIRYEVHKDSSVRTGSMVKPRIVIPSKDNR
Briefly: fluorescence titration. The note with it: read-out: KD (μM) / Ascaris eIF4E-3; 50 mM HEPES/KOH pH 7.20, 200 mM KCl, 1 mM DTT, 0.5 mM EDTA, 20 °C.

In another test the target is T2, Ascaris eIF4E-3 (49–236) (Ascaris suum, UniProt Q6PKX2).
T2 sequence (Q6PKX2 49-236): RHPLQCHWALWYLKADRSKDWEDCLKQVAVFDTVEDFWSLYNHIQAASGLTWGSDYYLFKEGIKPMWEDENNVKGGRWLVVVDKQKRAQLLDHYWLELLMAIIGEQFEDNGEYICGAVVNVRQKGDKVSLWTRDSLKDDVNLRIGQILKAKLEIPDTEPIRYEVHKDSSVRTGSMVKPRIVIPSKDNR
Briefly: isothermal titration calorimetry. On the technique in general: In ITC the heat of successive injections is recorded.

A further test concerns the target Human eIF4E (Homo sapiens, UniProt P06730). Briefly: isothermal titration calorimetry.
Test [2] concerns the target T1, Ascaris eIF4E-3. Briefly: isothermal titration calorimetry. As to conditions: 20 mM HEPES pH 7.4, 1 mM EDTA, 100 mM KCl, 20 °C; single-site model.
Test [3] has as its target T3, Ascaris eIF4E-3 (Ascaris suum, UniProt Q6PKX2, E116D).
T3 sequence (Q6PKX2 1-236 E116D): T1 sequence (Q6PKX2 1-236)
Briefly: isothermal titration calorimetry. The note with it: 20 mM HEPES pH 7.4, 1 mM EDTA, 100 mM KCl, 20 °C.

A further test deals with Human eIF4E (28–217) (Homo sapiens, UniProt P06730). The test is described as follows: fluorescence titration.
Sequence of Human eIF4E (28–217) (P06730 28-217): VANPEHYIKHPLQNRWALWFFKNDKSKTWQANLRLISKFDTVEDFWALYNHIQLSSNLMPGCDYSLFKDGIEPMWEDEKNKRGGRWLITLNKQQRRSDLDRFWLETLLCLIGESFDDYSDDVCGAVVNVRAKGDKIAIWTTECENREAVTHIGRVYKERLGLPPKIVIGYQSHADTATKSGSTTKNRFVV

Sequence of Human eIF4E (P06730 whole entry): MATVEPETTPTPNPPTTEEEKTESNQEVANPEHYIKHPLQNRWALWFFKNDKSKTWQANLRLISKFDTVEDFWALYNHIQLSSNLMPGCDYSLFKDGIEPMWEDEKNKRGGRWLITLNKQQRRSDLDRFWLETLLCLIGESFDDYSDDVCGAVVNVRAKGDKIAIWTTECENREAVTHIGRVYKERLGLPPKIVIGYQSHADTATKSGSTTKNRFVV

With `C[n+]1cn([C@@H]2O[C@H](COP(=O)(O)OP(=O)(O)OP(=O)(O)OC[C@H]3O[C@@H](n4cnc5c(=O)[nH]c(N)nc54)[C@H](O)[C@@H]3O)[C@@H](O)[C@H]2O)c2nc(N)[nH]c(=O)c21` [m^7GpppG], the Kd at Ascaris eIF4E-3 [1] was found to be 0.787 ± 0.025 µM; on Ascaris eIF4E-3 (49–236) it was 0.75 ± 0.19 µM.

In the case of `CN(C)c1nc2c(c(=O)[nH]1)[n+](C)cn2[C@@H]1O[C@H](COP(=O)(O)OP(=O)(O)OP(=O)(O)O)[C@@H](O)[C@H]1O` [m^2,2,7GTP], the Kd at Ascaris eIF4E-3 (49–236) was 12.2 ± 3.9 µM; on Human eIF4E it was 4.56 ± 2.1 µM; at Ascaris eIF4E-3 [2] it was 8.4 ± 1 µM; on Ascaris eIF4E-3 [3] it was 7 ± 0.1 µM.

For the molecule `Nc1nc2c(ncn2[C@@H]2O[C@H](COP(=O)(O)OP(=O)(O)OP(=O)(O)O)[C@@H](O)[C@H]2O)c(=O)[nH]1` [GTP], the Kd on Ascaris eIF4E-3 [1] turned out to be 83 ± 14 µM.

On to `C[n+]1cn([C@@H]2O[C@H](COP(=O)(O)OP(=O)(O)OP(=O)(O)O)[C@@H](O)[C@H]2O)c2nc(N)[nH]c(=O)c21` [m^7GTP], for which the Kd on Ascaris eIF4E-3 (49–236) was determined as 0.17 ± 0.05 µM; on Ascaris eIF4E-3 [2], 0.24 ± 0.04 µM; on Ascaris eIF4E-3 [3], 1.98 ± 0.2 µM.

At Human eIF4E (28–217), `CN(C)c1nc2c(c(=O)[nH]1)[n+](C)cn2[C@@H]1O[C@H](COP(=O)(O)OP(=O)(O)OP(=O)(O)OC[C@H]2O[C@@H](n3cnc4c(=O)[nH]c(N)nc43)[C@H](O)[C@@H]2O)[C@@H](O)[C@H]1O` [m^2,2,7GpppG] returned a Kd of 3.1 ± 1.1 µM.
